Test [1] relates to HCT-116. Put plainly: Inhibition of human HCT116 clonogenicity after 7 days by crystal violet staining by densitometric analysis. Type of test: functional.
In test [2] the test system is HCT-116. Put plainly: Cell cycle arrest in human HCT116 cells assessed as accumulation at G2/M phase at 20 uM after 48 hrs by flow cytometry (Rvb =23.23 %). Type of test: functional. A general note: Flow cytometry measures light scatter and fluorescence of single cells or particles in a stream.
The test system of test [3] is HCT-116. Briefly: Antiproliferative activity against human HCT116 assessed as growth inhibition at 5 to 40 uM hrs by WST-8 assay. Type of test: functional, cell-based. To be noted: TDE = time-dependent effect. In general terms: Formazan colour is commonly taken as a measure of viable cells.
The subject of test [4] is HCT-116. Put plainly: Cell cycle arrest in human HCT116 cells assessed as accumulation at sub-G1 phase at 20 uM after 48 hrs by flow cytometry (Rvb =7.90 %). Type of test: functional.
The test system of test [5] is HCT-116. Briefly: Cell cycle arrest in human HCT116 cells assessed as accumulation at S phase at 20 uM after 48 hrs by flow cytometry (Rvb =21.16 %). Type of test: functional.
The subject of test [6] is HCT-116. Briefly: Cell cycle arrest in human HCT116 cells assessed as accumulation at G1 phase at 20 uM after 48 hrs by flow cytometry (Rvb =45.27 %). Type of test: functional.
Test [7] relates to HCT-116. Put plainly: Antiproliferative activity against human HCT116 assessed as growth inhibition after 24 to 48 hrs by WST-8 assay. Type of test: functional, cell-based.

Consider 23 molecules from ChEMBL document CHEMBL2021909, “Isoflavones inhibit the clonogenicity of human colon cancer cells” (2012).

With `COc1ccc(-c2coc3c(C)c(OC)ccc3c2=O)cc1`, the “inhibition (INH)” value in the test on HCT-116 [1] was 52.7%.

As for `COc1ccc2c(=O)c(-c3ccc(Cl)cc3)coc2c1C`, in the test with HCT-116 [1], the “inhibition (INH)” value is on record as 58.3%.

In the case of `O=c1c(-c2ccc(O)cc2)coc2c(O)c(O)ccc12`, in the test on HCT-116 [1], the “inhibition (INH)” value was found to be 64%.

For the molecule `COc1ccc2c(=O)c(-c3ccccc3)coc2c1C`, the “inhibition (INH)” value with HCT-116 [1] came out at 54%.

As to `COc1ccc2c(=O)c(-c3ccccc3)coc2c1`, in the test with HCT-116 [1], the “inhibition (INH)” value is 42%.

Take `COc1cc(OC)c2c(=O)c(-c3ccc(Br)cc3)coc2c1`: the “inhibition (INH)” value with HCT-116 [1] is given as 13.7%.

On to `COc1cc(O)c2c(=O)c(-c3ccc(O)cc3)coc2c1` [PRUNETIN], for which the “inhibition (INH)” value in the test on HCT-116 [1] was found to be 74%.

Regarding `COc1cc2c(=O)c(-c3ccccc3)coc2cc1O`, the “inhibition (INH)” value with HCT-116 [1] turned out to be 37.3%.

As for `Cc1c(O)ccc2c(=O)c(-c3ccc(Cl)cc3)coc12`, in the test with HCT-116 [1], the “inhibition (INH)” value worked out at 46.3%.

Regarding `COc1ccc(-c2coc3cc(OC)c(OC)cc3c2=O)cc1OC`, in the test on HCT-116 [1], the “inhibition (INH)” value is given as 85.3%.

Take `COc1ccc2c(=O)c(-c3ccc(OC)c(OC)c3)coc2c1`: the “inhibition (INH)” value in the test with HCT-116 [1] turned out to be 35.7%.

`Cc1cc2occ(-c3ccc(Cl)cc3Cl)c(=O)c2cc1Cl`: in the test with HCT-116 [1], the “inhibition (INH)” value is reported as 12.7%.

Regarding `COc1cc(OC)c2c(=O)c(-c3ccc(OC)c(OC)c3)coc2c1`, the “inhibition (INH)” value in the test on HCT-116 [1] is recorded as 22.3%.

For the molecule `COc1cc2c(=O)c(-c3ccc(OC(C)=O)cc3)coc2cc1O`, in the test with HCT-116 [1], the “inhibition (INH)” value turned out to be 26.7%.

For the molecule `COc1ccc(-c2coc3cc(O)c(OC)cc3c2=O)cc1` [CASTANIN], the “inhibition (INH)” value in the test on HCT-116 [1] was 4.3%.

For the molecule `COc1cc(OC)c2c(=O)c(-c3ccccc3Cl)coc2c1`, the “inhibition (INH)” value in the test on HCT-116 [1] was 63.3%.

For the molecule `COc1ccc(-c2coc3c(OC)c(OC)ccc3c2=O)cc1`, the “inhibition (INH)” value in the test with HCT-116 [1] is on record as 70%.

In the case of `COc1cc(OC)c2c(=O)c(-c3cccc(Cl)c3)coc2c1`, in the test on HCT-116 [1], the “inhibition (INH)” value worked out at 82.7%.

`COc1cc2occ(-c3ccccc3Cl)c(=O)c2cc1Cl`: the “inhibition (INH)” value with HCT-116 [1] came to 5.3%.

Turning to `COc1cc(C)c2c(=O)c(-c3ccccc3)coc2c1`, the “inhibition (INH)” value in the test with HCT-116 [1] is 55.3%.

On to `COc1cc(OC)c2c(=O)c(-c3ccc(Cl)cc3)coc2c1`, for which the “inhibition (INH)” value with HCT-116 [1] is given as 71.3%.

In the case of `COc1cc2occ(-c3ccccc3)c(=O)c2cc1OC`, the Activity worked out at 14.34% with HCT-116 [2], 21.34% with HCT-116 [4], 14.97% with HCT-116 [5] and 47.46% in the test with HCT-116 [6]. Moreover, the “inhibition (INH)” value with HCT-116 [1] was 91.3%. In addition, the “growth inhibition (GI)” value was “tde” with HCT-116 [3] and “Dose-dependent effect” in the test with HCT-116 [7].

As for `Cc1c(O)ccc2c(=O)c(-c3ccccc3)coc12`, the “inhibition (INH)” value in the test with HCT-116 [1] was 27.7%.
